Values quoted from earlier work, collected in patent publication US6465497B2, “Arylthiazolidinedione derivatives” (Merck & Co., Inc., priority 1999, dated 2002).

Tests used:
PPARγ = biological target: T1, PPARγ (Homo sapiens, UniProt P37231); details: subsequent studies; Willson et al, J. Med. Chem. 1996
T1 sequence (P37231 1-505): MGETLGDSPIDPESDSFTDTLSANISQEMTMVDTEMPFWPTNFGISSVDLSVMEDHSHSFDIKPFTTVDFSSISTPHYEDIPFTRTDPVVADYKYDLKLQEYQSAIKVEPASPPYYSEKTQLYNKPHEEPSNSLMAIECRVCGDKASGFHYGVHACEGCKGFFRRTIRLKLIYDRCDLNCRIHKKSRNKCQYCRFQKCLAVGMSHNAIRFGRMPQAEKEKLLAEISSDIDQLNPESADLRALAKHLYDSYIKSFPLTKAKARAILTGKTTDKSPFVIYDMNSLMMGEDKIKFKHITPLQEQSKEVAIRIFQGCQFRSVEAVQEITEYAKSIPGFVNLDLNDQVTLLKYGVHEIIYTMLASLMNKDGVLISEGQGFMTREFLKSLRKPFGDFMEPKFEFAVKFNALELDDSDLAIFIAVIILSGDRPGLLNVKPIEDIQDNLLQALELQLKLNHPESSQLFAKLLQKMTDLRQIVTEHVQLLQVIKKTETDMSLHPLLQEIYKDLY

ob/ob mice = details: Cantello et al, J. Med. Chem. 1994
diabetic mouse model = details: Sohda et al, Chem. Pharm. Bull. 1982

For `CN(CCOc1ccc(C2SC(=O)NC2=O)cc1)c1nc2ccccc2o1` (stereo not drawn) [(1), 5-[4-[2-(2-benzoxazolylmethylamino)ethoxy]phenyl]-2,4-thiazolidinedione], the “amounts required for PPARγ activation” value (PPARγ) is listed as “relatively high amounts” and the antihyperglycemic activity (ob/ob mice) is listed as “no antihyperglycemic activity”.
For `O=C1NC(=O)C(c2ccc(OCCc3ccccc3)cc2)S1` (stereo not drawn) [(2), 5-[4-(phenylethoxy)phenyl]-2,4-thiazolidinedione], the antihyperglycemic effect (diabetic mouse model) is given as “no antihyperglycemic effect”.
